According to publication PMC11243320, “Tailoring Fibroblast-Activation Protein Targeting for Theranostics: A Comparative Preclinical Evaluation of the ^68Ga- and ^177Lu-Labeled Monomeric and Dimeric Fibroblast-Activation Protein Inhibitors DOTA.SA.FAPi and DOTAGA.(SA.FAPi)2” (Molecules, 2024):

Test: Lipophilicity LogD octanol/PBS pH 7.4, shake-flask method
Assay type: physicochemical
Description: The lipophilicity (LogDoctanol/PBS) and protein binding of the four radiotracers in human serum were determined as described in the Supplemental Data. […]
minimum conjugate amount. Briefly, the Ge-68/Ga-68 generator was eluted with 5 mL HCl 0.1 N and the eluate (~300 MBq) was loaded onto a cation exchange column (Strata-XC, Phenomenex). […]
After the labeling with gallium-68 or lutetium-177 and the quality control of the generated radiotracers, one equivalent of either natGa(NO3)3 or natLuCl3∙6H2O was added to the relevant radiolabeling solutions. […] The homogeneity was determined by HPLC, […]
Lipophilicity /Protein Binding Studies and Metabolic Stability in Human Serum The lipophilicity (LogD Octanol/PBS, pH 7.4) was estimated by the “shake –flask” method: the labelled conju-gate (20 pmol; 0.3 MBq) was added to a 1:1 mixture of 1-octanol (500 μL) and PBS (500 μL, pH 7.4). […] From each phase, an aliquot (50 μL) was pipetted out and measured in a gamma counter. […] The partition coefficient was calculated as the average log ratio of the radioactivity in the organic fraction and […]

| SMILES | Lipophilicity LogDoctanol/PBS-pH7.4 |
| --- | --- |
| N#C[C@@H]1CC(F)(F)CN1C(=O)CNC(=O)c1ccnc2ccc(OCCCCNc3c(NCCNC(=O)CN4CCN(CC(=O)[O-])CCN(CC(=O)[O-])CCN(CC(=O)[O-])CC4)c(=O)c3=O)cc12.[68Ga+3] [[^68Ga]Ga-DOTA.SA.FAPi] | −3.38 ± 0.03 |
| N#C[C@@H]1CC(F)(F)CN1C(=O)CNC(=O)c1ccnc2ccc(OCCCCNc3c(NCCNC(=O)CN4CCN(CC(=O)[O-])CCN(CC(=O)[O-])CCN(CC(=O)[O-])CC4)c(=O)c3=O)cc12.[177Lu+3] [[^177Lu]Lu-DOTA.SA.FAPi] | −2.86 ± 0.06 |
